According to US20080167284A1, “Hair And/Or Scalp Care Compositions Incorporating Visnadin” (priority 2005, published 2008):

Legend:
[1] = biological target: T1, Cannabinoid Receptor 2 (CB2R), human recombinant CB2 (Homo sapiens, UniProt P34972); experiment: CB2R radioligand experiment on membranes from HEK293 cells over-expressing human recombinant CB2; assay type: binding; details: human recombinant CB2, radioligand [3H]CP-55,495, n=3
T1 construct: purchased Perkin-Elmer; host or cells: HEK293
T1 sequence (P34972 whole entry): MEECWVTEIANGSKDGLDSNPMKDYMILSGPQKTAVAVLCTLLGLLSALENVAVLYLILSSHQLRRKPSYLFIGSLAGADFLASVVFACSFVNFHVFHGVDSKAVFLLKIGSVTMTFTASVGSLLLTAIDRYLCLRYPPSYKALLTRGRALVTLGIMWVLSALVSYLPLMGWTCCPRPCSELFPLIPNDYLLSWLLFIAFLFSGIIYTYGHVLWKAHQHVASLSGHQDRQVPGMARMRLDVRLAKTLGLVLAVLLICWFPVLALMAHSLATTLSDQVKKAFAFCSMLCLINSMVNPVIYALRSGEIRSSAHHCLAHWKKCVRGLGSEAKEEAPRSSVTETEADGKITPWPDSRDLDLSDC
Procedure: (§1) Visnadin was evaluated for its ability to activate Cannabinoid Receptor 1 (CB1R) and Cannabinoid Receptor 2 (CB2R).
CB2R experiments were performed using membranes from HEK293 cells over-expressing human recombinant CB2, as described by the manufacturer (Perkin-Elmer), and using [3H]CP-55,495 as the radioligand.
(§2) Data of active compounds are expressed in Ki (mM) and are means±SEM of n=3 determinations.
(§3) The values that are stated for each of the compounds is an EC50 value. This is defined as the molar concentration of an agonist, which produces 50% of the maximum possible response for that agonist. The values documented are in micromolar units.

[2] = biological target: T2, Cannabinoid Receptor 1 (CB1R), human recombinant CB1 (Homo sapiens, UniProt P21554); experiment: CB1R radioligand experiment on membranes from HEK293 cells over-expressing human recombinant CB1; assay type: binding; details: human recombinant CB1, radioligand [3H]CP-55,490, n=3
T2 construct: purchased Perkin-Elmer; host or cells: HEK293
T2 sequence (P21554 whole entry): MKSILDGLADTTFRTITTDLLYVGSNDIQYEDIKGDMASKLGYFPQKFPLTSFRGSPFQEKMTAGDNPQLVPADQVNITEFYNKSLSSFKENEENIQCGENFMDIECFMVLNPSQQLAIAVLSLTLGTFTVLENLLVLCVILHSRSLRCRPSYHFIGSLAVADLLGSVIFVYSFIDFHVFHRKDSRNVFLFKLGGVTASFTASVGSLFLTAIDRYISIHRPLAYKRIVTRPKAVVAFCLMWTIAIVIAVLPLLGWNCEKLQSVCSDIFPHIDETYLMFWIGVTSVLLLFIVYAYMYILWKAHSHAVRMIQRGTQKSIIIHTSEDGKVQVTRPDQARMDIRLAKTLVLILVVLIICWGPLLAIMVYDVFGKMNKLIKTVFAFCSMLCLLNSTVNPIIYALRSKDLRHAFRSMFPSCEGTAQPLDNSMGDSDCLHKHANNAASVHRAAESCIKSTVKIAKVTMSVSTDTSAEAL
Procedure: as §1
CB1R experiments were performed using membranes from HEK293 cells over-expressing human recombinant CB1, as described by the manufacturer (Perkin-Elmer) and using [3H]CP-55,490 as the radioligand.
as §2, §3

CCC(C)C(=O)O[C@@H]1[C@H](OC(C)=O)c2c(ccc3ccc(=O)oc23)OC1(C)C (some centres unmarked) [visnadin]
EC50 [1]: 14.1 µM
EC50 [2]: > 25 µM
